Measurements taken from patent publication US9708336B2, “Metallo-beta-lactamase inhibitors” (priority 2014, dated 2017).
Where two headings read alike, the source gives them in different places.

Assays:
[1] = target: NDM-1 (Klebsiella pneumoniae, UniProt C7C422); assay: biochemical; type: biochemical; settings: read-out: NDM-1 IC50
[2] = tested on: Klebsiella pneumoniae expressing VIM-1 (IHMA599644); assay: Antibiotic potentiation activity: synergistic concentration (MITC95) with imipenem, OD600 growth; type: cell-based; settings: for Klebsiella pneumoniae expressing VIM-1 (IHMA 599644) MITC95: concentration giving 95% inhibition of bacterial growth; for Klebsiella pneumoniae MITC95: Klebsiella pneumoniae expressing VIM-1 (IHMA599644), 95% growth inhibition
Outline: (§1)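 Overnight colonies (35 °C) were suspended in saline, diluted 1:100 into 1.1× CAMHB, and exposed to test compound with imipenem at 4 μg/ml (optionally 1 μg/ml) in assay. After 22–24 h at 35 °C, growth was read by absorbance.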

[3] = tested on: Escherichia coli expressing NDM-1 (CLB30005); assay: as above; type: cell-based; settings: for Escherichia coli expressing NDM-1 (CLB 30005) MITC95: concentration giving 95% inhibition of bacterial growth; for Escherichia coli MITC95: Escherichia coli expressing NDM-1 (CLB30005), 95% growth inhibition
Outline: as §1

[4] = tested on: Serratia marcescens expressing IMP-1 (CL5741); assay: as above; type: cell-based; settings: for Serratia marcescens expressing IMP-1 (CL5741) MITC95: concentration giving 95% inhibition of bacterial growth; for Serratia marcescens MITC95: Serratia marcescens expressing IMP-1 (CL5741), 95% growth inhibition
Outline: as §1

[5] = target: IMP-1 (Serratia marcescens, UniProt P52699); assay: biochemical; type: biochemical; settings: read-out: IMP-1 IC50
[6] = target: VIM-1 (Pseudomonas aeruginosa (strain ATCC 15692 / DSM 22644 / CIP 104116 / JCM 14847 / LMG 12228 / 1C / PRS 101 / PAO1), UniProt A0A0F7KYQ8); assay: Enzyme activity: determination of IC50, fluorescence assay with CCF2-FA substrate (VIM-1); type: biochemical
[7] = fluorescence assay with CCF2-FA substrate
[8] = fluorescence assay with CCF2-FA substrate, read-out: VIM-1 IC50
[9] = NDM-1 enzyme, CCF2-FA fluorescence assay
[10] = IMP-1 enzyme, CCF2-FA fluorescence assay
[11] = VIM-1 enzyme, CCF2-FA fluorescence assay, read-out: VIM-1 IC50

IMP-1, sequence (P52699 whole entry, looked up): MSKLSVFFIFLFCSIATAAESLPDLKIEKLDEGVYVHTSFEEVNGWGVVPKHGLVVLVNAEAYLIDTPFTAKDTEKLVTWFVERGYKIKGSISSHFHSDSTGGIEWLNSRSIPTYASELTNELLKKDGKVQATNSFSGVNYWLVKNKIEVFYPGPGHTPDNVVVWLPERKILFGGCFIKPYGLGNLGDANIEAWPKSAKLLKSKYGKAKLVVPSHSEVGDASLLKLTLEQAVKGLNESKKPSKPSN
NDM-1, sequence (C7C422 whole entry, looked up, species assumed): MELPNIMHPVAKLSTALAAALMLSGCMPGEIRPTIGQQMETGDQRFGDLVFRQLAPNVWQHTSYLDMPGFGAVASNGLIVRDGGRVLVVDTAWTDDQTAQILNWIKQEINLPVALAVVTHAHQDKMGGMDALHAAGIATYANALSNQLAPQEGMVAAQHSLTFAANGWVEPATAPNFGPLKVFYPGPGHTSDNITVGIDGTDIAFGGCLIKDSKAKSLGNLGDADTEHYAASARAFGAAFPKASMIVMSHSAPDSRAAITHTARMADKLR

SMILES	IC50 [1, 7] [nM]	Klebsiella pneumoniae expressing VIM-1 (IHMA 599644) MITC95 [2] [µM]	Escherichia coli expressing NDM-1 (CLB 30005) MITC95 [3] [µM]	Serratia marcescens expressing IMP-1 (CL5741) MITC95 [4] [µM]	IC50 [5, 7] [nM]	IC50 [6, 8] [nM]	IC50 [1, 9] [nM]	Klebsiella pneumoniae MITC95 [2] [µM]	Escherichia coli MITC95 [3] [µM]	Serratia marcescens MITC95 [4] [µM]	IC50 [5, 10] [nM]	IC50 [6, 11] [nM]	IC50 ([6]; VIM-1 IC50, VIM-1 enzyme, CCF2-FA fluorescence assay) [nM]	IC50 ([6]; VIM-1 IC50, fluorescence assay with CCF2-FA substrate) [nM]
COC1CCN(C(=O)c2ccc(-c3cccc(S(N)(=O)=O)c3-c3nn[nH]n3)cc2)CC1 [Example 51, 4′-[(4-methoxypiperidin-1-yl)carbonyl]-2-(2H-tetrazol-5-yl)biphenyl-3-sulfonamide]	2.74	>200	9.375	31.25	27.4	4190	–	–	–	–	–	–	–	–
CCNC(=O)N1CCC(c2cccc(S(N)(=O)=O)c2-c2nn[nH]n2)CC1 [Example 174, N-ethyl-4-(3-sulfamoyl-2-(2H-tetrazol-5-yl)phenyl)piperidine-1-carboxamide]	4.54	100	2.344	12.5	403	262	–	–	–	–	–	–	–	–
NS(=O)(=O)c1cccc(-c2ccccc2)c1-c1nn[nH]n1 [Example 14, 2-(2H-tetrazol-5-yl)biphenyl-3-sulfonamide]	5.19	100	0.3906	6.25	172	108	–	–	–	–	–	–	–	–
CS(=O)(=O)Nc1cccc(-c2cccc(S(N)(=O)=O)c2-c2nn[nH]n2)c1 [Example 86, 3′-[(methylsulfonyl)amino]-2-(2H-tetrazol-5-yl)biphenyl-3-sulfonamide]	11	200	0.7813	3.125	67.4	1070	–	–	–	–	–	–	–	–
NC(=O)c1cccc(-c2cccc(S(N)(=O)=O)c2-c2nn[nH]n2)c1 [Example 81, 3′-sulfamoyl-2′-(2H-tetrazol-5-yl)biphenyl-3-carboxamide]	34.6	37.5	0.9766	37.5	571	255	–	–	–	–	–	–	–	–
NS(=O)(=O)c1cccc(C#CCC2CNCCO2)c1-c1nn[nH]n1 (stereo not drawn) [Example 145, 3-(3-morpholin-2-ylprop-1-yn-1-yl)-2-(2H-tetrazol-5-yl)benzenesulfonamide]	191	>200	0.7813	75	2410	6410	–	–	–	–	–	–	–	–
NS(=O)(=O)c1cccc(-c2cnc(C3(O)CCC3)s2)c1-c1nn[nH]n1 [Example 21, 3-[2-(1-hydroxycyclobutyl)-1,3-thiazol-5-yl]-2-(2H-tetrazol-5-yl)benzenesulfonamide]	63.8	>200	12.89	100	2270	564	–	–	–	–	–	–	–	–
NS(=O)(=O)c1cccc(-c2ccnc(F)c2)c1-c1nn[nH]n1 [Example 46, 3-(2-fluoropyridin-4-yl)-2-(2H-tetrazol-5-yl)benzenesulfonamide]	14.5	28.13	0.5859	25	302	99.1	–	–	–	–	–	–	–	–
Cn1ncc2cc(-c3cccc(S(N)(=O)=O)c3-c3nn[nH]n3)ccc21 [Example 68, 3-(1-methyl-1H-indazol-5-yl)-2-(2H-tetrazol-5-yl)benzenesulfonamide]	1.99	75	2.344	12.5	81.9	33.7	–	–	–	–	–	–	–	–
Cc1ccc(-c2cc(-c3ccc4c(c3)CNC4=O)cc(S(N)(=O)=O)c2-c2nn[nH]n2)cc1 [Example 290, 4′-Methyl-5-(1-oxoisoindolin-5-yl)-2-(2H-tetrazol-5-yl)-[1,1′-biphenyl]-3-sulfonamide]	–	–	–	–	–	–	0.637	>200	3.516	19.53	19.7	34.3	–	–
NS(=O)(=O)c1cccc(-c2cccnc2)c1-c1nn[nH]n1 [Example 19, 3-pyridin-3-yl-2-(2H-tetrazol-5-yl)benzenesulfonamide]	24.5	50	0.3906	50	1780	269	–	–	–	–	–	–	–	–
NS(=O)(=O)c1nccc(-c2ccc(C3CCNCC3)cc2)c1-c1nnn[nH]1 [Example 197, 4-(4-(piperidin-4-yl)phenyl)-3-(1H-tetrazol-5-yl)pyridine-2-sulfonamide]	130	1.563	0.3906	1.563	582	70.2	–	–	–	–	–	–	–	–
NS(=O)(=O)c1cccc(-c2ccc(C3(O)CNC3)cc2)c1-c1nn[nH]n1 [Example 315, 4′-(3-hydroxyazetidin-3-yl)-2-(2H-tetrazol-5-yl)-[1,1′-biphenyl]-3-sulfonamide]	–	–	–	–	–	–	11.6	3.125	0.3906	4.688	510	–	33.4	–
CS(=O)(=O)c1ccc(-c2cccc(S(N)(=O)=O)c2-c2nn[nH]n2)cc1 [Example 16, 4′-(methylsulfonyl)-2-(2H-tetrazol-5-yl)biphenyl-3-sulfonamide]	10.5	75	1.172	25	85.5	–	–	–	–	–	–	–	–	67.1
CS(=O)(=O)c1nc2cc(Cl)c(-c3cccc(S(N)(=O)=O)c3-c3nn[nH]n3)cc2[nH]1 [Example 278, 3-(5-chloro-2-(methylsulfonyl)-1H-benzo[d]imidazol-6-yl)-2-(2H-tetrazol-5-yl)benzenesulfonamide]	–	–	–	–	–	–	8.5	100	3.125	37.5	536	79.1	–	–
NS(=O)(=O)c1cccc(-c2ccc3c(c2)CCCO3)c1-c1nn[nH]n1 [Example 85, 3-(3,4-dihydro-2H-chromen-6-yl)-2-(2H-tetrazol-5-yl)benzenesulfonamide]	1.81	150	2.344	37.5	94.6	28	–	–	–	–	–	–	–	–
NS(=O)(=O)c1cccc(-c2ccc(-n3nccn3)cc2)c1-c1nn[nH]n1 [Example 5, 2-(2H-tetrazol-5-yl)-4′-(2H-1,2,3-triazol-2-yl)biphenyl-3-sulfonamide]	3.44	>200	0.7813	12.5	72.3	56.5	–	–	–	–	–	–	–	–
